Read-outs that look alike come from different tables or passages of the source.
What was measured:
Kir2.1 = biological target: T1, Kir2.1 (Homo sapiens, UniProt P63252); assay: CiPA IonChannelProfiler Cardiac Panel, QPatch; format: cell-based; conditions: mean of two sample results
T1 sequence (P63252 1-427): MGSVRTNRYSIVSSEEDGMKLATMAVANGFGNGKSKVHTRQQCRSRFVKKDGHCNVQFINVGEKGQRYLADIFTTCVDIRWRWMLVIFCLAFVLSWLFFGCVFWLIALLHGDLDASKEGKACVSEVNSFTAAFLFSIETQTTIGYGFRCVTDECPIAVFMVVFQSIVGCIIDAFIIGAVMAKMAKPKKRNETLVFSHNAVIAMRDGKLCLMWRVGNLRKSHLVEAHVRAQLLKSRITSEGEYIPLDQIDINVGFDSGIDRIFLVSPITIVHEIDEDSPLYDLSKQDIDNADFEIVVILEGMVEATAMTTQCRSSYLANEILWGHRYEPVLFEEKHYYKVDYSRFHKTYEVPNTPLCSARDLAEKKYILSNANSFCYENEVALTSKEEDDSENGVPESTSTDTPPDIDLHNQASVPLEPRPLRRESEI

[1] = Phospholipidosis and steatosis, high content screening; format: cell-based; design: key to Cell count, Trend (↑↓) / Nuclear size, Trend (↑↓) / DNA structure, Trend (↑↓) / Phospholipidosis, Trend (↑↓) / Steatosis, Trend (↑↓): ↑: increasing trend of response; ↓: decreasing trend of response; conditions: human, HepG2 cells
HepG2 cells = assay: as above; format: cell-based; design: key to Cell count, Trend (↑↓) / Nuclear size, Trend (↑↓) / DNA structure, Trend (↑↓) / Phospholipidosis, Trend (↑↓) / Steatosis, Trend (↑↓): ↑: increasing trend of response; ↓: decreasing trend of response; conditions: for Steatosis, MEC: (NS) = not statistically significant
CYP1A2 [2] = biological target: T2, CYP1A2 (Homo sapiens, UniProt P05177); assay: CYP inhibition in human liver microsomes; conditions: human, human liver microsomes, probe phenacetin
T2 sequence (P05177 1-516): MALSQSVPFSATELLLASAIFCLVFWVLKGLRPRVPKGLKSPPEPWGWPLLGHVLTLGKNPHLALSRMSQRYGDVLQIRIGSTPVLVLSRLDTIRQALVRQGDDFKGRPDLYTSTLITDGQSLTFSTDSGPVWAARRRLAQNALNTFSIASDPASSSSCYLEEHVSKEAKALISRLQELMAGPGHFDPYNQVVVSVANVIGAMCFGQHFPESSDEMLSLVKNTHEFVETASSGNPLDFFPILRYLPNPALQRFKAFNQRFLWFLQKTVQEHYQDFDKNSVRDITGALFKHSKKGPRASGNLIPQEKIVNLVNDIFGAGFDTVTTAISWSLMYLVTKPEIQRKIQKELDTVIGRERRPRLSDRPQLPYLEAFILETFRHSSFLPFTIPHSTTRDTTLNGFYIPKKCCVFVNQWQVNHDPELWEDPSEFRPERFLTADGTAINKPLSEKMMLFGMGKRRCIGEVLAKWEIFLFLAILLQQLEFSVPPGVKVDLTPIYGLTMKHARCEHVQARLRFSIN

CYP2B6 [3] = biological target: T3, CYP2B6 (Homo sapiens, UniProt P20813); assay: CYP inhibition in human liver microsomes; conditions: human, human liver microsomes, probe bupropion
T3 sequence (P20813 1-491): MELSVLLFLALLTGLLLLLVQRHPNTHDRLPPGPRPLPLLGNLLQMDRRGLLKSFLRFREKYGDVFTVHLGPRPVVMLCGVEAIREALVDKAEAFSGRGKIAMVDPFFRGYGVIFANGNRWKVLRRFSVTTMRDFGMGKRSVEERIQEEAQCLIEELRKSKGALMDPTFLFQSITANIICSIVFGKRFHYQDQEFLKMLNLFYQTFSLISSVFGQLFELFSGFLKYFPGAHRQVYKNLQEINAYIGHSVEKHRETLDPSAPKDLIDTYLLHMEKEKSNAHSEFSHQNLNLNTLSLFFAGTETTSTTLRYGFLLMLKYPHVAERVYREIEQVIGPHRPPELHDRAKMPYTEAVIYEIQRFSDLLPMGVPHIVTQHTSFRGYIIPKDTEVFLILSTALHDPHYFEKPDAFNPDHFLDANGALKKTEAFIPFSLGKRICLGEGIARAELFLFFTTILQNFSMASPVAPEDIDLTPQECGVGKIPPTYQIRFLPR

CYP2C8 = biological target: T4, CYP2C8 (Homo sapiens, UniProt P10632); assay: CYP inhibition in human liver microsomes; conditions: human, human liver microsomes, probe paclitaxel
T4 sequence (P10632 1-490): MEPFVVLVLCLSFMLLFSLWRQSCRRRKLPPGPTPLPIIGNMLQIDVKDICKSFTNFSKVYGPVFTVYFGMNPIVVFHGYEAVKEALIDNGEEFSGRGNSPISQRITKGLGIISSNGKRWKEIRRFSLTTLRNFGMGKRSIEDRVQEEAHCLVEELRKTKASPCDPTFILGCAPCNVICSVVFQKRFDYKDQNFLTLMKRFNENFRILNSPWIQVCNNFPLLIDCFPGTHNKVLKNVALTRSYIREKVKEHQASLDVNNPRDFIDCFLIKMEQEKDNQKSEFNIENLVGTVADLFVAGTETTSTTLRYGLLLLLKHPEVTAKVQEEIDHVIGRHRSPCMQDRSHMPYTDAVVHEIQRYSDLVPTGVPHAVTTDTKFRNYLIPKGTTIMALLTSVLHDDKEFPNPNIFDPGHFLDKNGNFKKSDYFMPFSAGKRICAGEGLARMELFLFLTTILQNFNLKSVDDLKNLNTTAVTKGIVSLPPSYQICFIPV

CYP2C9 = CYP2C9 (Homo sapiens, UniProt P11712); assay: CYP inhibition in human liver microsomes; conditions: human
CYP2C19 = CYP2C19 (Homo sapiens, UniProt P33261); assay: CYP inhibition in human liver microsomes; conditions: human, human liver microsomes, probe mephenytoin
human hepatocytes = assay: MTT assay, hepatocyte viability; format: cell-based
CYP2B6 mRNA = assay: CYP induction, mRNA, primary cultured human hepatocytes; conditions: Fold Induction (CYP2B6 mRNA expression)
Source text: (§1) Rifampicin as a positive control and solvent (0.1% DMSO) vehicle control were also included. The acceptance criteria for CYP induction was ≥ 2-fold induction for significant CYP activity, while the acceptance criteria for CYP mRNA was ≥ 4-fold for significant CYP induction.

CYP2B6 [4] = assay: as above; conditions: Fold Induction (CYP2B6 mRNA expression), hepatocyte Lot 399, 1000 µM
Source text: as §1

CYP2B6 [5] = assay: CYP induction, in situ catalytic activity, human hepatocytes
Source text: as §1

CYP1A2 mRNA = assay: CYP induction, mRNA, primary cultured human hepatocytes; format: in vitro ADME; conditions: read-out: CYP1A2 mRNA Fold Induction (fold of vehicle control)
Source text: as §1

CYP1A2 [6] = assay: CYP induction, in situ catalytic activity, human hepatocytes; format: in vitro ADME
Source text: as §1

CYP3A4 = CYP3A4 (Homo sapiens, UniProt P08684); assay: in vitro; conditions: microsomes
CYP2D6 = CYP2D6 (Homo sapiens, UniProt P10635); assay: CYP inhibition in human liver microsomes; conditions: human, human liver microsomes, probe bufuralol
[7] = # AC50 greater than the maximum surviving concentration, (NS) = not statistically significant, read-out: Steatosis, AC50
[8] = read-out: Phospholipidosis, AC50

CYP2C9, sequence (P11712 whole entry): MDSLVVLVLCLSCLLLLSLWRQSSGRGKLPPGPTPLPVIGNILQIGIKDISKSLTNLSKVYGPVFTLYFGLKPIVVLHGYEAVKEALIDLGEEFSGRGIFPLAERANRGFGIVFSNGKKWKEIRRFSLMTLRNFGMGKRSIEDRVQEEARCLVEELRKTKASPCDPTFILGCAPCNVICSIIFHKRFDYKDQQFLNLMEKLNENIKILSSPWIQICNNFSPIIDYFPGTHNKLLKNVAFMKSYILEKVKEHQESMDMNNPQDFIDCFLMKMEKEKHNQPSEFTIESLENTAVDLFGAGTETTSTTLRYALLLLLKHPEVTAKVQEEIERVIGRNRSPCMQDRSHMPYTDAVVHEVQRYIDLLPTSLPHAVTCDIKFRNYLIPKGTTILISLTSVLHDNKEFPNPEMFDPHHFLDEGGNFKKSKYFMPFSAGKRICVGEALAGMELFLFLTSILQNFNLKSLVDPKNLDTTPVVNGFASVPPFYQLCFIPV
CYP2C19, sequence (P33261 whole entry): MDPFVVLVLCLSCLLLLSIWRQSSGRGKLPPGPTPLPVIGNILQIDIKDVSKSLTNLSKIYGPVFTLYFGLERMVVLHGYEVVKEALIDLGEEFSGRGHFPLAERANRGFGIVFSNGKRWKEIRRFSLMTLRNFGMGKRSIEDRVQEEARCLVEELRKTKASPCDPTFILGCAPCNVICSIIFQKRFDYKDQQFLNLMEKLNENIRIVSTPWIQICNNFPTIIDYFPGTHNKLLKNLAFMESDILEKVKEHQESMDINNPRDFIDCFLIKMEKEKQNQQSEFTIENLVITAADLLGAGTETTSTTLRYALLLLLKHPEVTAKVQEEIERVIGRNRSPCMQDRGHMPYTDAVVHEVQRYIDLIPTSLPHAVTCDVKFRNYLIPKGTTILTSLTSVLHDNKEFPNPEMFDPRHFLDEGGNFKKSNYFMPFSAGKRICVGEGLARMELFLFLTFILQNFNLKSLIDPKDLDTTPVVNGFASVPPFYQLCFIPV
CYP3A4, sequence (P08684 2-503): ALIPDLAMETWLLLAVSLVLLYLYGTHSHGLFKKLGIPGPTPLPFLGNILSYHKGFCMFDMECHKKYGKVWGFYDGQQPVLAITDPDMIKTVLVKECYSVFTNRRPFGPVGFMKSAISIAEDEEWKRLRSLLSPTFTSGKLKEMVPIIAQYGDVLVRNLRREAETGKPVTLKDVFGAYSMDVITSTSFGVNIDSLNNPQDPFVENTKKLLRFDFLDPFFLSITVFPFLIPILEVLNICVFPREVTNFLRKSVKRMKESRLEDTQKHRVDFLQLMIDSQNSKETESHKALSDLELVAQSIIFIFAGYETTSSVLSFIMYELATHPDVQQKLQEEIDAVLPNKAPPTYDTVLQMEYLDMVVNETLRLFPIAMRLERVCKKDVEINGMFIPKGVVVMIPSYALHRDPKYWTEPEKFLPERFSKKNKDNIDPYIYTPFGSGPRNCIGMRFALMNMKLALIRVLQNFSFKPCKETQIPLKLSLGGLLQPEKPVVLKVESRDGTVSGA
CYP2D6, sequence (P10635 whole entry): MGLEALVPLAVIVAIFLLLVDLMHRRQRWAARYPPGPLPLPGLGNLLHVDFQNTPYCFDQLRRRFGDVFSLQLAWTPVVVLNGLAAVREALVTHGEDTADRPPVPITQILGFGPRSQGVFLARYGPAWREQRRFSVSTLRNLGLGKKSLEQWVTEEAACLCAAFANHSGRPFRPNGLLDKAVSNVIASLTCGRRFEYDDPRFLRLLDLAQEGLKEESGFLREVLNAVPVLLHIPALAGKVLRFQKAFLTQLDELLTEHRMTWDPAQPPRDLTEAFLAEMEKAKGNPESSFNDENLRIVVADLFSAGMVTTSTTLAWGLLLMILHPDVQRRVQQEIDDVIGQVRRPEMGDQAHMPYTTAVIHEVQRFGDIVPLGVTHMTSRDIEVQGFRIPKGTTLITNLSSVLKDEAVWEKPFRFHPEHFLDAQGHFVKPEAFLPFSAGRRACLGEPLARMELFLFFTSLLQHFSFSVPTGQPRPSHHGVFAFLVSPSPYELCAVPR

CCc1cc(Cl)c(OC)c(N2CCN(C[C@H](O)CCNC(=O)c3cc4ccccc4[nH]3)CC2)c1 [(R)-VK4-116]
Mean % inhibition on hKir2.1 (End) (Kir2.1; 0.01 µM): 8.24%
Mean % inhibition on hKir2.1 (End) (Kir2.1; 0.1 µM): 12.22%
Mean % inhibition on hKir2.1 (End) (Kir2.1; 1 µM): 16.36%
Mean % inhibition on hKir2.1 (End) (Kir2.1; 10 µM): 18.23%
Mean % inhibition on hKir2.1 (End) (Kir2.1; 100 µM): 97.19%
Mean % inhibition on hKir2.1 (Peak) (Kir2.1; 0.01 µM): 9.54%
Mean % inhibition on hKir2.1 (Peak) (Kir2.1; 0.1 µM): 14.42%
Mean % inhibition on hKir2.1 (Peak) (Kir2.1; 1 µM): 19.01%
Mean % inhibition on hKir2.1 (Peak) (Kir2.1; 10 µM): 21.58%
Mean % inhibition on hKir2.1 (Peak) (Kir2.1; 100 µM): 52.64%

CN[C@H]1CC[C@@H](c2ccc(Cl)c(Cl)c2)c2ccccc21 [Sertraline]
AC50 [1, 7]: > 3.13 µM
AC50 ([1]; read-out: Cell count, AC50): 2.48 µM
AC50 ([1]; read-out: DNA structure, AC50): 6.23 µM
AC50 ([1]; read-out: Nuclear size, AC50): > 3.13 µM
AC50 [1, 8]: 0.351 µM
Cell count, MEC (HepG2 cells): 1.61 µM
Cell count, Trend (↑↓) (HepG2 cells): ↓
DNA structure, MEC (HepG2 cells): 0.876 µM
DNA structure, Trend (↑↓) (HepG2 cells): ↑
Phospholipidosis, MEC (HepG2 cells): <0.0977 µM
Phospholipidosis, Trend (↑↓) (HepG2 cells): ↑
Steatosis, Trend (↑↓) (HepG2 cells): ↑
Steatosis, MEC (HepG2 cells): 0.822 (NS) μM

CC(=O)N1CCN(c2ccc(OCC3COC(Cn4ccnc4)(c4ccc(Cl)cc4Cl)O3)cc2)CC1 (stereo not drawn) [Ketoconazole]
activity at 20 min, 5 µM (CYP1A2 [2]): 70.7 ± 2.2%
activity at 20 min, 5 µM (CYP2B6 [3]): 49.1 ± 0.7%
activity at 20 min, 5 µM (CYP2C8): 45.7 ± 4.7%
activity at 20 min, 5 µM (CYP2C9; human liver microsomes, probe diclofenac): 65.8 ± 1.9%
activity at 20 min, 5 µM (CYP2C19): 82.9 ± 2.8%

CC/C(=C(\c1ccccc1)c1ccc(OCCN(C)C)cc1)c1ccccc1 [Tamoxifen]
Hepatocyte Viability, MTT Assay Upfront (Mean) (human hepatocytes; 50 µM): 4
Hepatocyte Viability, Concurrent MTT Assay (Mean) (human hepatocytes; Lot 336, 50 µM): 2
Hepatocyte Viability, Concurrent MTT Assay (Mean) (human hepatocytes; Lot 348B, 50 µM): 1
Hepatocyte Viability, Concurrent MTT Assay (Mean) (human hepatocytes; Lot 399, 50 µM): 7
AC50 [1, 7]: 16.9 µM
AC50 ([1]; read-out: Cell count, AC50): 0.442 µM
AC50 ([1]; read-out: DNA structure, AC50): 6.3 µM
AC50 ([1]; read-out: Nuclear size, AC50): 3.05 µM
AC50 [1, 8]: 0.764 µM
Cell count, MEC (HepG2 cells): 0.360 µM
Cell count, Trend (↑↓) (HepG2 cells): ↑
DNA structure, MEC (HepG2 cells): 2.57 µM
DNA structure, Trend (↑↓) (HepG2 cells): ↑
Nuclear size, MEC (HepG2 cells): 0.672 µM
Nuclear size, Trend (↑↓) (HepG2 cells): ↓
Phospholipidosis, MEC (HepG2 cells): 0.447 µM
Steatosis, Trend (↑↓) (HepG2 cells): ↑
Steatosis, MEC (HepG2 cells): 4.38 µM

CCC1(c2ccccc2)C(=O)NC(=O)NC1=O [Phenobarbital]
fold induction at 48 h, 1000 µM (CYP2B6 mRNA; hepatocyte Lot 336, 1000 µM): 11
fold induction at 48 h, 1000 µM (CYP2B6 mRNA; hepatocyte Lot 348B, 1000 µM): 12
fold induction at 48 h, 1000 µM (CYP2B6 [4]): 11
Bupropion Hydroxylation (CYP2B6 [5]; hepatocyte Lot 336, 1000 µM): 3.6 pmol/min/106 cells
Fold of Vehicle Control (CYP2B6 activity, bupropion hydroxylation) (CYP2B6 [5]; hepatocyte Lot 336, 1000 µM): 4.0 fold
Fold of Vehicle Control (CYP2B6 activity, bupropion hydroxylation) (CYP2B6 [5]; hepatocyte Lot 348B, 1000 µM): 8.6 fold
Fold of Vehicle Control (CYP2B6 activity, bupropion hydroxylation) (CYP2B6 [5]; hepatocyte Lot 399, 1000 µM): 19 fold

COc1ccc2[nH]c([S+]([O-])Cc3ncc(C)c(OC)c3C)nc2c1 (stereo not drawn) [Omeprazole, reference compound]
fold induction at 48 h, 50 µM (CYP1A2 mRNA; Lot 336, 50 µM): 115
fold induction at 48 h, 50 µM (CYP1A2 mRNA; Lot 348B, 50 µM): 361
fold induction at 48 h, 50 µM (CYP1A2 mRNA; Lot 399, 50 µM): 232
CYP1A2 activity, Fold of Vehicle Control (CYP1A2 [6]; Lot 336, 50 µM): 17 fold
CYP1A2 activity, Fold of Vehicle Control (CYP1A2 [6]; Lot 348B, 50 µM): 44 fold
CYP1A2 activity, Fold of Vehicle Control (CYP1A2 [6]; Lot 399, 50 µM): 23 fold
Phenacetin-O- deethylation (CYP1A2 [6]; Lot 399, 50 µM): 186 pmol/min/106 cells

Nc1ccc(S(=O)(=O)Nc2ccnn2-c2ccccc2)cc1 [Sulfaphenazole]
activity at 20 min, 3 µM (CYP3A4; CYP activity (% of Control) 3A4 (Midazolam)): 98.7 ± 5.2%
activity at 20 min, 3 µM (CYP3A4; CYP activity (% of Control) 3A4 (Testosterone)): 95.9 ± 4.3%
activity at 20 min, 3 µM (CYP1A2 [2]): 98.1 ± 10.8%
activity at 20 min, 3 µM (CYP2B6 [3]): 100 ± 5.8%
activity at 20 min, 3 µM (CYP2C8): 97.6 ± 19.2%
activity at 20 min, 3 µM (CYP2C9; microsomes): 23.6 ± 3.3%
activity at 20 min, 3 µM (CYP2C19): 102 ± 6.5%
activity at 20 min, 3 µM (CYP2D6): 94.8 ± 7.2%

[Ba+2].[Cl-].[Cl-] [Barium Chloride]
Mean % inhibition on hKir2.1 (End) (Kir2.1; 1 µM): 11.87%
Mean % inhibition on hKir2.1 (End) (Kir2.1; 3 µM): 30.43%
Mean % inhibition on hKir2.1 (End) (Kir2.1; 10 µM): 55.57%
Mean % inhibition on hKir2.1 (End) (Kir2.1; 30 µM): 85.21%
Mean % inhibition on hKir2.1 (End) (Kir2.1; 100 µM): 89.33%
Mean % inhibition on hKir2.1 (Peak) (Kir2.1; 1 µM): 6.70%
Mean % inhibition on hKir2.1 (Peak) (Kir2.1; 3 µM): 11.92%
Mean % inhibition on hKir2.1 (Peak) (Kir2.1; 10 µM): 17.51%
Mean % inhibition on hKir2.1 (Peak) (Kir2.1; 30 µM): 27.21%
Mean % inhibition on hKir2.1 (Peak) (Kir2.1; 100 µM): 45.99%

— PMC11649115, “In vitro safety evaluation of dopamine D3R antagonist, R-VK4-116, as a potential medication for the treatment of opioid use disorder” (PLOS ONE, 2024)
